# Assay results as given in patent US20250176550A1, “HERBICIDE COMPOSITION OF URACIL COMPOUND CONTAINING CARBOXYLATE FRAGMENT AND THE USE THEREOF” (Jiangsu Flag Chemical Industry Co., Ltd., priority 2022, published 2025).
# Columns and labels:
# Experiment in all cases: Indoor virulence and combined effect, greenhouse pot test, post-emergence stem and leaf spray, fresh weight inhibition
# Assay type in all cases: in vivo
# [1] = test system: eleusine indica
# Protocol: (§1) The active ingredients A and B are respectively screened and an indoor combined effect of the composition on weeds was evaluated by an indoor test and a field test, to determine a combined effect of the composition on weeds.
# (§2) Quantitative seeds of Poaceae weeds (echinochloa crusgalli, Digitaria sanguinalis, setaria viridis, Eleusine indica, avena fatua, alopecurus japonicus, alopecurus aequalis, Lolium multiflorum) and broadleaf weeds (eclipta prostrata, rorippa dubia, Abutilon theophrasti, conyza canadensis, veronica persica, myosoton aquaticum, polygonum lapathifolium, galium aparine var. tenerum, alisma plantago-aquatica, geranium carolinianum) were sown in paper cup containing nutrient soil with a diameter of 7 cm, covered with soil for 1 cm after sowing. After pressing and watering, they were cultured in a greenhouse according to a conventional method. Poaceae weeds grew to 3˜4 leaf stage, broad-leaved weeds grew to 4˜6 leaf stage, spraying treatment to both stem and leaf was performed; and pre-seedling soil spray treatment was performed 24 hours after sowing. Following an experimental design dosage, a WP-2000 walking spray tower (spindle speed 96 mm/r, spray height 200 mm, effective spray amplitude of nozzle 350 mm, nozzle flow rate 390 mL/min, nozzle walking speed 210 mm/s) was used for the spray treatment. The experiment was repeated three times. After being treated, a sample material is placed in an operation hall, and after the drug solution is naturally dried out, the sample material is placed in a greenhouse and managed according to the conventional method. A reaction of weeds to the drug agent is observed and recorded, and a regularly visual check of a control effect of the drug agent on weeds was performed after the treatment.
# (§3) All of original drugs were using acetone as a solvent, being diluted with 0.1 wt % emulsifier of Tween-80 aqueous solution, and being diluted right before using.
# (§4) When determining a ratio or content of the active ingredient A and the active ingredient B, it should be measured from characteristics of action of both agents and virulence thereof, as well as the main purpose of use of a formula shall also be considered in. In the present study, on a basis of previous pre-test, the dosages of the active ingredient A and the active ingredient B were set, when being used alone and mixed, as shown in the following table. Water containing no agent, but containing the same solvent and emulsifier was used as a blank control.
# (§5) Repeat 4 times for each treatment, 3 pots per treatment each time and 30 weed seeds were sown for each pot.
# (§6) Adopting an absolute number survey method, using a blade to cut the whole seedling of surviving weed along soil surface, and weighting the fresh weight of the weed with an analytical balance. For weeds that had died, counting the fresh weight as zero.
# (§7) Survey period and frequency: 21 days after the treatment, total 1 investigation.
# (§8) The theoretical fresh weight inhibition rate (E0-Expected Efficacy=[…]) of each treatment combination was calculated by Gowing method, and then compared with the measured inhibition rate (E-Observed Efficacy) to evaluate the combined effect type of both on weeds. When E-E0 value was greater than 10%, it was counted as a synergistic effect, less than −10%, it was counted as an antagonistic effect, and between −10%˜10%, it was counted as an additive effect. According to a plurality of factors including an actual control efficacy, a herbicide characteristic, a formula balance and other factors to determine the best ratio. In the formula, X is the fresh weight inhibition rate of the ingredient A at a dosage of P; Y is the fresh weight inhibition rate of the active ingredient B at a dosage of Q.
# (§9) The statistical results are shown in Table 1 to Table 44 below, except for those marked clearly as “pre-emergence treatment”, all others are “post-emergence treatment”. […]
# [2] = test system: echinochloa crusgalli; conditions: for Fresh weight suppression rate %, B single dose: Table 22
# Protocol: as §1
# as §2, with “Following an experimental design dosage, a WP-2000 walking spray tower (spindle speed 96 mm/r, spray height 200 mm, effective spray amplitude of nozzle 350 mm, nozzle flow rate 390 mL/min, nozzle walking speed 210 mm/s) was used for the spray treatment.” left out, “method.” for “method. A reaction of weeds to the drug agent is observed and recorded, and a regularly visual check of a control effect of the drug agent on weeds was performed after the treatment.”
# as §3, §4, §5, §6, §7
# When E-E0 value was greater than 10%, it was counted as a synergistic effect, less than −10%, it was counted as an antagonistic effect, and between −10%˜10%, it was counted as an additive effect. […] In the formula, X is the fresh weight inhibition rate of the ingredient A at a dosage of P; Y is the fresh weight inhibition rate of the active ingredient B at a dosage of Q.
# [3] = test system: digitaria sanguinalis; conditions: for Fresh weight suppression rate %, B single agent: Table 14
# Protocol: as §1, §2, §3, §4, §5, §6, §7, §8, §9
compound,measurement,setting,value
CCOC(=O)C1(C)CC(c2cc(-n3c(=O)cc(C(F)(F)F)n(C)c3=O)c(F)cc2Cl)=NO1 (centres unmarked) [SY-1604],"Fresh weight inhibition rate %, B single agent","[1]; Table 33, B 7.5 g a.i./ha",47.10%
same,"Fresh weight inhibition rate %, B single agent","[1]; Table 33, B 12.5 g a.i./ha",48.33%
same,"Fresh weight inhibition rate %, B single agent","[1]; Table 33, B 20 g a.i./ha",64.09%
same,"Fresh weight inhibition rate %, B single agent","[1]; Table 33, B 30 g a.i./ha",72.50%
same,"Fresh weight inhibition rate %, B single agent","[1]; Table 33, B 40 g a.i./ha",74.06%
COP(=S)(OC)SCC(=O)N(c1ccc(Cl)cc1)C(C)(C)C [anilofos],"Fresh weight suppression rate %, B single dose",[2]; B 60 g a.i./ha,37.41%
same,"Fresh weight suppression rate %, B single dose",[2]; B 80 g a.i./ha,41.96%
same,"Fresh weight suppression rate %, B single dose",[2]; B 105 g a.i./ha,46.85%
same,"Fresh weight suppression rate %, B single dose",[2]; B 120 g a.i./ha,64.69%
COc1cc(OC)nc(Oc2cccc(Oc3nc(OC)cc(OC)n3)c2C(=O)O)n1 [bispyribac-sodium],inhibition at 5 g/ha,"[2]; Echinochloa crus-galli, 504 h, Table 4, 5 g a.i./ha, post-emergence, 21 days after treatment, read-out: Fresh weight inhibition rate %, B single agent",14.3%
same,inhibition at 10 g/ha,"[2]; Echinochloa crus-galli, 504 h, Table 4, 10 g a.i./ha, post-emergence, 21 days after treatment, read-out: Fresh weight inhibition rate %, B single agent",21.9%
same,inhibition at 25 g/ha,"[2]; Echinochloa crus-galli, 504 h, Table 4, 25 g a.i./ha, post-emergence, 21 days after treatment, read-out: Fresh weight inhibition rate %, B single agent",30.1%
CCOC(=O)COc1ncccc1Oc1cc(-n2c(=O)cc(C(F)(F)F)n(C)c2=O)c(F)cc1Cl [epyrifenacil],"Fresh weight inhibition rate %, B single agent","[1]; Table 35, B 5 g a.i./ha",38.04%
same,"Fresh weight inhibition rate %, B single agent","[1]; Table 35, B 10 g a.i./ha",32.92%
same,"Fresh weight inhibition rate %, B single agent","[1]; Table 35, B 15 g a.i./ha",37.91%
same,"Fresh weight inhibition rate %, B single agent","[1]; Table 35, B 20 g a.i./ha",51.59%
C[C@@H](Oc1nc(F)c(Cl)c(N)c1Cl)C(=O)OCC1CCCO1 (some centres unmarked) [fluchloraminopyr-tefuryl],"Fresh weight inhibition rate %, B single agent","[3]; Table 41, B 50 g a.i./ha",47.40%
same,"Fresh weight inhibition rate %, B single agent","[3]; Table 41, B 80 g a.i./ha",66.49%
same,"Fresh weight inhibition rate %, B single agent","[3]; Table 41, B 120 g a.i./ha",74.76%
same,"Fresh weight inhibition rate %, B single agent","[3]; Table 41, B 150 g a.i./ha",79.70%
COC(=O)[C@@H](C)O/N=C/c1cc(-n2c(=O)cc(C(F)(F)F)n(C)c2=O)c(F)cc1Cl [flufenoximacil],"Fresh weight inhibition rate %, B single agent","[1]; Table 36, B 5 g a.i./ha",34.41%
same,"Fresh weight inhibition rate %, B single agent","[1]; Table 36, B 10 g a.i./ha",51.91%
same,"Fresh weight inhibition rate %, B single agent","[1]; Table 36, B 15 g a.i./ha (row 5 + 15)",55.99%
same,"Fresh weight inhibition rate %, B single agent","[1]; Table 36, B 15 g a.i./ha (row 15 + 15)",55.99%
same,"Fresh weight inhibition rate %, B single agent","[1]; Table 36, B 20 g a.i./ha",59.18%
CCC[S+]([O-])c1c(C(F)(F)F)ccc(C(=O)Nc2nnc(C)o2)c1F (centres unmarked) [flusulfinam],"Fresh weight suppression rate %, B single agent",[3]; B 15 g a.i./ha,34.84%
same,"Fresh weight suppression rate %, B single agent",[3]; B 30 g a.i./ha,36.52%
same,"Fresh weight suppression rate %, B single agent",[3]; B 37.5 g a.i./ha,40.37%
same,"Fresh weight suppression rate %, B single agent",[3]; B 45 g a.i./ha,50.75%
CC(C)N.O=C(O)CNCP(=O)(O)O [glyphosate-isopropylammonium],"Fresh weight inhibition rate %, B single agent","[1]; Table 18, B 160 g a.i./ha",27.36%
same,"Fresh weight inhibition rate %, B single agent","[1]; Table 18, B 240 g a.i./ha",32.37%
same,"Fresh weight inhibition rate %, B single agent","[1]; Table 18, B 350 g a.i./ha",35.52%
same,"Fresh weight inhibition rate %, B single agent","[1]; Table 18, B 500 g a.i./ha",45.72%
CS(=O)(=O)c1cc(C(F)(F)F)ccc1C(=O)c1cnoc1C1CC1 [isoxaflutole],"Fresh weight inhibition rate %, B single agent","[3]; Table 16, B 40 g a.i./ha",56.12%
same,"Fresh weight inhibition rate %, B single agent","[3]; Table 16, B 50 g a.i./ha",71.94%
same,"Fresh weight inhibition rate %, B single agent","[3]; Table 16, B 60 g a.i./ha",73.13%
same,"Fresh weight inhibition rate %, B single agent","[3]; Table 16, B 70 g a.i./ha",76.72%
CS(=O)(=O)c1ccc(C(=O)C2C(=O)CCCC2=O)c([N+](=O)[O-])c1 [mesotrione],"Fresh weight inhibition rate %, B single agent","[3]; Table 13, B 90 g a.i./ha",45.39%
same,"Fresh weight inhibition rate %, B single agent","[3]; Table 13, B 105 g a.i./ha",56.62%
same,"Fresh weight inhibition rate %, B single agent","[3]; Table 13, B 120 g a.i./ha",58.12%
C[C@@H](Oc1ccc(Oc2nc3ccc(Cl)cc3o2)cc1)C(=O)N(C)c1ccccc1F [metamifop],"Fresh weight inhibition rate %, B single agent","[3]; Table 29, B 15 g a.i./ha",49.80%
same,"Fresh weight inhibition rate %, B single agent","[3]; Table 29, B 25 g a.i./ha",55.48%
same,"Fresh weight inhibition rate %, B single agent","[3]; Table 29, B 40 g a.i./ha",58.52%
same,"Fresh weight inhibition rate %, B single agent","[3]; Table 29, B 60 g a.i./ha",60.50%
COc1cc(OC)nc(NC(=O)NS(=O)(=O)c2ncccc2C(=O)N(C)C)n1 [nicosulfuron],inhibition at 12.5 g/ha,"[3]; Digitaria sanguinalis, 504 h, Table 1, 12.5 g a.i./ha, post-emergence, 21 days after treatment, read-out: Fresh weight inhibition rate %, B single agent",10.2%
same,inhibition at 20 g/ha,"[3]; Digitaria sanguinalis, 504 h, Table 1, 20 g a.i./ha, post-emergence, 21 days after treatment, read-out: Fresh weight inhibition rate %, B single agent",23.4%
same,inhibition at 25 g/ha,"[3]; Digitaria sanguinalis, 504 h, Table 1, 25 g a.i./ha, post-emergence, 21 days after treatment, read-out: Fresh weight inhibition rate %, B single agent",34.9%
same,inhibition at 30 g/ha,"[3]; Digitaria sanguinalis, 504 h, Table 1, 30 g a.i./ha, post-emergence, 21 days after treatment, read-out: Fresh weight inhibition rate %, B single agent",39.1%
CC(C)N(C)S(=O)(=O)NC(=O)c1cc(-n2c(=O)cc(C(F)(F)F)n(C)c2=O)c(F)cc1Cl [saflufenacil],"Fresh weight inhibition rate %, B single agent","[1]; Table 30, B 7.5 g a.i./ha",23.20%
same,"Fresh weight inhibition rate %, B single agent","[1]; Table 30, B 12.5 g a.i./ha",39.66%
same,"Fresh weight inhibition rate %, B single agent","[1]; Table 30, B 20 g a.i./ha",50.62%
same,"Fresh weight inhibition rate %, B single agent","[1]; Table 30, B 30 g a.i./ha",58.13%
same,"Fresh weight inhibition rate %, B single agent","[1]; Table 30, B 40 g a.i./ha",50.09%
Cc1nn(-c2cc(NS(C)(=O)=O)c(Cl)cc2Cl)c(=O)n1C(F)F [sulfentrazone],"Fresh weight inhibition rate %, B single agent","[1]; Table 32, B 75 g a.i./ha",8.30%
same,"Fresh weight inhibition rate %, B single agent","[1]; Table 32, B 120 g a.i./ha",18.12%
same,"Fresh weight inhibition rate %, B single agent","[1]; Table 32, B 150 g a.i./ha",23.53%
Cc1c(C(=O)c2cnn(C)c2O)ccc(S(C)(=O)=O)c1C1=NOCC1 [topramezone],"Fresh weight inhibition rate %, B single agent","[3]; Table 15, B 7.5 g a.i./ha",3.85%
same,"Fresh weight inhibition rate %, B single agent","[3]; Table 15, B 10 g a.i./ha",17.09%
same,"Fresh weight inhibition rate %, B single agent","[3]; Table 15, B 12.5 g a.i./ha",19.6%
oxadiargyl,"Fresh weight inhibition rate %, B single agent","[3]; Table 31, B 12.5 g a.i./ha",38.31%
same,"Fresh weight inhibition rate %, B single agent","[3]; Table 31, B 20 g a.i./ha",42.31%
same,"Fresh weight inhibition rate %, B single agent","[3]; Table 31, B 30 g a.i./ha",52.31%
